Data published in US11458138B2 (Novartis AG, priority 2017, dated 2022).
pEC50, pIC50: −log10 of the molar value.

Experiments:
[1] = target: Human LATS1 kinase domain protein (Homo sapiens (Human), UniProt O95835); test: LATS1 Biochemical Caliper Assay; conditions: 400 micromolar ATP
Experimental: Human LATS1 kinase domain protein was purchased from Carnabio (catalogue number 01-123), which harbors the catalytic domain of amino acids 589-1130, and was co-purified with human His-tagged MOBKL1A (NP_775-739). 5 microlitre of enzyme buffer, 100 nL of compounds and 5 microlitre of localising aid buffer were added into 384-well plates. The final assay reaction mix contains 100 mM HEPES, pH7.5, 0.1% BSA, 0.01% Triton X-100, 1 mM DTT, 10 mM MgCl2, 10 micromolar Sodium Orthovanadate, 10 micromolar Beta-Glycerophosphate, 400 micromolar ATP, 1% DMSO, 1.1 nM LATS1 enzyme (Carnabio, 01-123), 1 micromolar localising aid of FAM-[…]-COOH (SEQ ID NO: 24) (NanoSyn). The plates were incubated at 25° C. for 3 hours. 40 microlitre of stop buffer with 25 mM EDTA (NanoSyn) was added to each well to terminate the reaction. Localising aids and products were separated electrophoretically using the microfluidic-based Caliper Labchip 3000 Drug Discovery System (Caliper Life Sciences). Plates were read using blue laser excitation and green fluorescence detection and quantified by fluorescence intensity. […] According to this assay the LATS1 IC50 values in micromolar for the following compounds are: […]

[2] = system: Phospho-YAP (SER127) in HaCaT cells; test: pYAP HTRF Assay (HaCaT Cells); type: cell-based, human; conditions: Homo sapiens, 2 hours
In short: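 Phospho-YAP (Ser127) was measured by HTRF (665 nm/620 nm ratio) in HaCaT cells. Cells were grown 48 hours at 37° C at 5500 cells/well, exposed to compound for 2 hours, and incubated with detection reagents for 20 hrs at room temperature.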

[3] = system: YAP nuclear translocation in HaCaT cells; test: YAP Translocation Assay (HaCaT Cells); type: cell-based, human; conditions: Homo sapiens, 24 hours
In short: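 HaCaT cells (20,000/well) in DMEM + 10% FBS were plated overnight at 37° C, then exposed to compound for 24 h at 37° C. Cells were fixed with PFA, permeabilized with 0.1% Triton/1.5% BSA and imaged by high-content imaging.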

[4] = system: Phospho-YAP (Ser127) in JHH-5 cells; test: pYAP HTRF Assay (JHH-5 cells); type: cell-based; conditions: 2 hours
In short: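 Phospho-YAP read by HTRF (665 nm/620 nm ×10000) in lysates after overnight 18 h antibody incubation at room temperature. Compound treatment lasted 2 h at 37 °C, on JHH-5 cells plated 24 h earlier at 24000 per well in William's E medium with 10% FBS.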

[5] = system: human corneal endothelial cells (CECs); test: Human corneal endothelial cell population expansion: endothelial cell density in vitro; type: cell-based; conditions: 10 micromolar compound, X-VIVO15 medium, 10 days
Experimental: Cells were cultured at 37° C. in 5% CO2.
For each compound, two sets of cultures were generated. A first set of cultures was fixed in 4% PFA for 20 minutes at room temperature after cells isolated from the cornea had attached to the cell culture dish (typically 24 h after cell plating). A second set of cultures was fixed in 4% PFA for 20 minutes at room temperature 10 days after the first one.
To measure cell density in all fixed cultures, the number of nuclei stained with Sytox Orange (ThermoFisher) were counted per surface area as follows: fixed cell cultures fixed were permeabilized in a solution of 0.3% Triton X-100 (Sigma-Aldrich). Cells were then labeled in a solution of 0.5 micromolar of Sytox Orange in PBS for 5 minutes at room temperature. Nuclei were counted under a Zeiss epifluorescence microscope. The expansion factor was then determined by calculating the ratio of the expanded population of cells to population of seeded cells.

Human LATS1 kinase domain protein, sequence (O95835 whole entry, looked up, the tested form may be a part): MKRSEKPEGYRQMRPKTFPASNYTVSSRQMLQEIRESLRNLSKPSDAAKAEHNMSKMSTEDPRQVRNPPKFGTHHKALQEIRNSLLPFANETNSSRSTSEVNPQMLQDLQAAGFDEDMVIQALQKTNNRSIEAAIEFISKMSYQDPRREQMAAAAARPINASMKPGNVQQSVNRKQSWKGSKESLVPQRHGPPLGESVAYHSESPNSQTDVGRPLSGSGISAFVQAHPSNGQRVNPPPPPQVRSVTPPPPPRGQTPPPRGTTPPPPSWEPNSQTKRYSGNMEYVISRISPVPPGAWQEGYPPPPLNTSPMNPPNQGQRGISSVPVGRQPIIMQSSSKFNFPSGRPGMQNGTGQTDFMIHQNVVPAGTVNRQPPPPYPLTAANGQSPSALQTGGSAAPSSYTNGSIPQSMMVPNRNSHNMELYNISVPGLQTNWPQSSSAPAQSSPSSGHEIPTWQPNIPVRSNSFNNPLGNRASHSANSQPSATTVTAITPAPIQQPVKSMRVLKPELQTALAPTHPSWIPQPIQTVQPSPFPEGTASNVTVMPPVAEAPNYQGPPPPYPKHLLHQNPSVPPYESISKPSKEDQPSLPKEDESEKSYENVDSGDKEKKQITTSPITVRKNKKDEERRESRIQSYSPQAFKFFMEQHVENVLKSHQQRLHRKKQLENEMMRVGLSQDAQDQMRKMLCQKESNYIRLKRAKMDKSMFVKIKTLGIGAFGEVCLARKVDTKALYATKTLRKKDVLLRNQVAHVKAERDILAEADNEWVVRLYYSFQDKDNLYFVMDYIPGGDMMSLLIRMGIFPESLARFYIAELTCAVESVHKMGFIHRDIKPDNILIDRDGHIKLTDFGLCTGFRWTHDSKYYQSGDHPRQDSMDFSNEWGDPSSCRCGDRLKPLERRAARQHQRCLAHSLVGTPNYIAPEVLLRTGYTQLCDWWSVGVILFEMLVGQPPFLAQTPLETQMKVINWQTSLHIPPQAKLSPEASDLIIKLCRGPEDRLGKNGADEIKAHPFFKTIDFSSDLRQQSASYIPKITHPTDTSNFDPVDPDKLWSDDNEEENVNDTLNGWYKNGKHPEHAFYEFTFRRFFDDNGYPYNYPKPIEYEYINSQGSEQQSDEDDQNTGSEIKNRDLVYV
Human LATS1 kinase domain protein, sequence (Q7L9L4 whole entry partner, looked up, the tested form may be a part): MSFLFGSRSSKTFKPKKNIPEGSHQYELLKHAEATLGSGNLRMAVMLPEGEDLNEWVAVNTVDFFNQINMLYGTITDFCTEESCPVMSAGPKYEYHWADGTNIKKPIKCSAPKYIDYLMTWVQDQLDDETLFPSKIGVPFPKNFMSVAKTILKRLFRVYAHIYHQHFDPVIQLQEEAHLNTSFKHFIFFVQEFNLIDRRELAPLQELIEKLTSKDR

pIC50 [1] | pIC50 [4] | SMILES | pIC50 [2] | pEC50 [3] | Endothelial Cell density in vitro [5]
7.47 | < 5.00 | CCCNc1nc(-c2ccncc2)nc2cnccc12 [Example 14, N-propyl-2-(pyridin-4-yl)pyrido[3,4-d]pyrimidin-4-amine] | 5.14 | 5.37 | 3271 cells/mm^2
7.92 | 5.80 | CC(C)(O)CC(C)(C)Nc1nc(-c2ccncc2)nc2cnccc12 [Example 49, 2,4-dimethyl-4-{[2-(pyridin-4-yl)pyrido[3,4-d]pyrimidin-4-yl]amino}pentan-2-ol] | 6.22 | 5.93 | 3873 cells/mm^2
7.66 | 5.24 | c1cc(-c2nc(NC3CCCC3)c3ccncc3n2)ccn1 [Example 65, N-cyclopentyl-2-(pyridin-4-yl)pyrido[3,4-d]pyrimidin-4-amine] | 6.05 | 5.70 | 1702 cells/mm^2
– | 6.22 | CC(C)(C)Nc1cc(-c2ccncc2)nc2cnccc12 [Example 261, N-(tert-butyl)-2-(pyridin-4-yl)-1,7-naphthyridin-4-amine] | 6.69 | 5.91 | 4308 cells/mm^2

SMILES | pIC50 [1] | pIC50 [4] | pIC50 [2] | pEC50 [3] | Endothelial Cell density in vitro [5]
Cc1n[nH]cc1-c1nc(NC2(C)CC2)c2ccncc2n1 [Example 133, 2-(3-methyl-1H-pyrazol-4-yl)-N-(1-methylcyclopropyl)pyrido[3,4-d]pyrimidin-4-amine] | 8.40 | 5.77 | 6.38 | 5.78 | 2028 cells/mm^2
